Measurements reported in patent publication US6355799B1, “Substituted benzene compounds, process for their preparation, and herbicidal and defoliant compositions containing them” (ISK Americas Incorporated, priority 1997, dated 2002).

Legend:
Assay type in all cases: in vivo
[1] = tested on: upland rice (Oryza sp., var. Tebonnet, RICE); assay: Post-emerge test, crop safety; conditions: post-emerge, crop damage rating 0-100 at 14 days after application
Summary of the method: (§1)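 Plants grown in 10 cm pots of sandy loam mix received acetone-dissolved compounds through a moving flat-fan nozzle. Doses ranged from 15 to 1000 g ai/ha. Pre-emerge pots were seeded one day earlier, post-emerge pots 8–21 days earlier. Fourteen days on, each pot was graded 0–100 for damage.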

[2] = tested on: field corn (Zea mays L., var. Dekalb 535, CORN); assay: Post-emerge test, crop safety; conditions: post-emerge, crop damage rating 0-100 at 14 days after application
Summary of the method: as §1

[3] = tested on: redroot pigweed (Amaranthus retroflexus, AMARE); assay: Pre-emerge test, greenhouse herbicide activity screening; conditions: pre-emerge, phytotoxicity rating 0-100 at 14 days after application
Summary of the method: (§2)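 Herbicidal damage is scored 0 (none) to 100 (complete plant death) two weeks after a simulated field spray. Rates span 15–1000 g ai/ha, delivered in acetone at 187 l/ha. For post-emergence treatments, plants have 2–3 leaves and the spray carries 0.25% v/v non-ionic surfactant.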

[4] = tested on: upland rice (Oryza sp., var. Tebonnet, RICE); assay: Pre-emerge test, crop safety; conditions: crop damage, pre-emerge, phytotoxicity rating 0-100 at 14 days after application
Summary of the method: as §1

[5] = tested on: field corn (Zea mays L., var. Dekalb 535, CORN); assay: Pre-emerge test, crop safety; conditions: crop damage, pre-emerge, phytotoxicity rating 0-100 at 14 days after application
Summary of the method: as §1

[6] = tested on: large crabgrass (Digitaria sanguinalis, DIGSA); assay: Pre-emerge test, greenhouse herbicide activity screening; conditions: pre-emerge, phytotoxicity rating 0-100 at 14 days after application
Summary of the method: (§3)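 Rating: 0–100 visual injury, 14 DAA. Application: acetone, 187 l/ha, 15–1000 g ai/ha, flat-fan track sprayer with nozzle 40–45 cm above soil or canopy. Post-emerge runs used 0.25% v/v surfactant on 2–3 leaf plants.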

[7] = tested on: green foxtail (Setaria viridis, SETVI); assay: as above; conditions: pre-emerge, phytotoxicity rating 0-100 at 14 days after application
Summary of the method: as §3

[8] = tested on: lambsquarters (Chenopodium album, CHEAL); assay: as above; conditions: pre-emerge, phytotoxicity rating 0-100 at 14 days after application
Summary of the method: as §3

[9] = tested on: sicklepod (Cassia obtusifolia, CASOB); assay: as above; conditions: pre-emerge, phytotoxicity rating 0-100 at 14 days after application
Summary of the method: as §3

[10] = tested on: barnyardgrass (Echinochloa crus-galli, ECHCG); assay: as above; conditions: pre-emerge, phytotoxicity rating 0-100 at 14 days after application
Summary of the method: as §3

[11] = tested on: ivyleaf morningglory (Ipomoea hederacea, IPOHE); assay: as above; conditions: pre-emerge, phytotoxicity rating 0-100 at 14 days after application
Summary of the method: as §3

[12] = tested on: johnsongrass (Sorghum halepense, SORHA); assay: as above; conditions: pre-emerge, phytotoxicity rating 0-100 at 14 days after application
Summary of the method: as §3

[13] = tested on: velvetleaf (Abutilon theophrasti, ABUTH); assay: as above; conditions: pre-emerge, phytotoxicity rating 0-100 at 14 days after application
Summary of the method: as §3

[14] = tested on: large crabgrass (Digitaria sanguinalis, DIGSA); assay: Post-emerge test, greenhouse herbicide activity screening; conditions: post-emerge, phytotoxicity rating 0-100 at 14 days after application
Summary of the method: as §2

[15] = tested on: redroot pigweed (Amaranthus retroflexus, AMARE); assay: as above; conditions: post-emerge, phytotoxicity rating 0-100 at 14 days after application
Summary of the method: as §2

[16] = tested on: green foxtail (Setaria viridis, SETVI); assay: as above; conditions: post-emerge, phytotoxicity rating 0-100 at 14 days after application
Summary of the method: as §2

[17] = tested on: lambsquarters (Chenopodium album, CHEAL); assay: as above; conditions: post-emerge, phytotoxicity rating 0-100 at 14 days after application
Summary of the method: as §2

[18] = tested on: sicklepod (Cassia obtusifolia, CASOB); assay: as above; conditions: post-emerge, phytotoxicity rating 0-100 at 14 days after application
Summary of the method: as §2

[19] = tested on: barnyardgrass (Echinochloa crus-galli, ECHCG); assay: as above; conditions: post-emerge, phytotoxicity rating 0-100 at 14 days after application
Summary of the method: as §2

[20] = tested on: ivyleaf morningglory (Ipomoea hederacea, IPOHE); assay: as above; conditions: post-emerge, phytotoxicity rating 0-100 at 14 days after application
Summary of the method: as §2

[21] = tested on: johnsongrass (Sorghum halepense, SORHA); assay: as above; conditions: post-emerge, phytotoxicity rating 0-100 at 14 days after application
Summary of the method: as §2

[22] = tested on: velvetleaf (Abutilon theophrasti, ABUTH); assay: as above; conditions: post-emerge, phytotoxicity rating 0-100 at 14 days after application
Summary of the method: as §2

C=Cc1ccc(C(=O)Nc2c(OC)c(Cl)cc(F)c2N2C(=O)C3=C(CCCC3)C2=O)cc1 [8-30]
Post-emerge Herbicidal Activity RICE ([1]; 63 g ai/ha): 40
Post-emerge Herbicidal Activity RICE ([1]; 250 g ai/ha): 35
Post-emerge Herbicidal Activity CORN ([2]; 63 g ai/ha): 10
Post-emerge Herbicidal Activity CORN ([2]; 250 g ai/ha): 15
Pre-emerge Herbicidal Activity AMARE ([3]; rate 63 g ai/ha): 100
Pre-emerge Herbicidal Activity AMARE ([3]; rate 250 g ai/ha): 100
Pre-emerge Herbicidal Activity RICE ([4]; rate 63 g ai/ha): 5
Pre-emerge Herbicidal Activity RICE ([4]; rate 250 g ai/ha): 10
Pre-emerge Herbicidal Activity CORN ([5]; rate 63 g ai/ha): 0
Pre-emerge Herbicidal Activity CORN ([5]; rate 250 g ai/ha): 5
Pre-emerge Herbicidal Activity DIGSA ([6]; rate 63 g ai/ha): 30
Pre-emerge Herbicidal Activity DIGSA ([6]; rate 250 g ai/ha): 50
Pre-emerge Herbicidal Activity SETVI ([7]; rate 63 g ai/ha): 20
Pre-emerge Herbicidal Activity SETVI ([7]; rate 250 g ai/ha): 70
Pre-emerge Herbicidal Activity CHEAL ([8]; rate 63 g ai/ha): 100
Pre-emerge Herbicidal Activity CHEAL ([8]; rate 250 g ai/ha): 100
Pre-emerge Herbicidal Activity CASOB ([9]; rate 63 g ai/ha): 20
Pre-emerge Herbicidal Activity CASOB ([9]; rate 250 g ai/ha): 20
Pre-emerge Herbicidal Activity ECHCG ([10]; rate 63 g ai/ha): 0
Pre-emerge Herbicidal Activity ECHCG ([10]; rate 250 g ai/ha): 20
Pre-emerge Herbicidal Activity IPOHE ([11]; rate 63 g ai/ha): 20
Pre-emerge Herbicidal Activity IPOHE ([11]; rate 250 g ai/ha): 10
Pre-emerge Herbicidal Activity SORHA ([12]; rate 63 g ai/ha): 0
Pre-emerge Herbicidal Activity SORHA ([12]; rate 250 g ai/ha): 30
Pre-emerge Herbicidal Activity ABUTH ([13]; rate 63 g ai/ha): 70
Pre-emerge Herbicidal Activity ABUTH ([13]; rate 250 g ai/ha): 90
Post-emerge Herbicidal Activity DIGSA ([14]; 63 g ai/ha): 20
Post-emerge Herbicidal Activity DIGSA ([14]; 250 g ai/ha): 40
Post-emerge Herbicidal Activity AMARE ([15]; 63 g ai/ha): 100
Post-emerge Herbicidal Activity AMARE ([15]; 250 g ai/ha): 100
Post-emerge Herbicidal Activity SETVI ([16]; 63 g ai/ha): 40
Post-emerge Herbicidal Activity SETVI ([16]; 250 g ai/ha): 70
Post-emerge Herbicidal Activity CHEAL ([17]; 63 g ai/ha): 100
Post-emerge Herbicidal Activity CHEAL ([17]; 250 g ai/ha): 100
Post-emerge Herbicidal Activity CASOB ([18]; 63 g ai/ha): 80
Post-emerge Herbicidal Activity CASOB ([18]; 250 g ai/ha): 100
Post-emerge Herbicidal Activity ECHCG ([19]; 63 g ai/ha): 30
Post-emerge Herbicidal Activity ECHCG ([19]; 250 g ai/ha): 70
Post-emerge Herbicidal Activity IPOHE ([20]; 63 g ai/ha): 100
Post-emerge Herbicidal Activity IPOHE ([20]; 250 g ai/ha): 100
Post-emerge Herbicidal Activity SORHA ([21]; 63 g ai/ha): 30
Post-emerge Herbicidal Activity SORHA ([21]; 250 g ai/ha): 50
Post-emerge Herbicidal Activity ABUTH ([22]; 63 g ai/ha): 100
Post-emerge Herbicidal Activity ABUTH ([22]; 250 g ai/ha): 100
